Assay results as given in ChEMBL document CHEMBL1201862, “PubChem BioAssay data set” (2004).
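Step 1: Grow cells in 96-well plates. Step 2: Expose to compound for 48 hours at 5 concentrations. Step 3: Interpolate endpoints linearly; if unreached, use highest concentration. Here, GI50 denotes the concentration required for 50% inhibition of growth.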 Activity calls are given as the source filed them. No stated cut-off is given here; in the data, active = GI50 up to about 1.1 µM and inactive = higher.

Legend:
Assay in all cases: inhibition of tumour cell growth, NCI panel, 48 h
[1] = system: SN12C
[2] = system: HCT-15
[3] = system: OVCAR-8
[4] = system: TK-10
[5] = system: HCT-116
[6] = system: MDA-MB-231
[7] = system: U-251
[8] = system: M14
[9] = system: DU-145
[10] = system: PC-3
[11] = system: HOP-92
[12] = system: OVCAR-5
[13] = system: RPMI-8226
[14] = system: SF-295
[15] = system: COLO 205
[16] = system: KM12
[17] = system: RXF 393
[18] = system: UO-31
[19] = system: HT-29
[20] = system: EKVX

Row | SMILES | GI50 [1] | GI50 [2] | GI50 [3] | GI50 [4] | GI50 [5] | GI50 [6] | GI50 [7] | GI50 [8] | GI50 [9] | GI50 [10] | GI50 [11] | GI50 [12] | GI50 [13] | GI50 [14] | GI50 [15] | GI50 [16] | GI50 [17] | GI50 [18] | GI50 [19] | GI50 [20]
1 | Clc1ccc(OCc2nnc3sc(-c4ccc(-c5ccc(Cl)cc5Cl)o4)nn23)c(Cl)c1 | 18.9 µM (inactive) | 20.7 µM | 17.9 µM (inactive) | 19.5 µM (inactive) | 15.7 µM (inactive) | 16.3 µM (inactive) | 19.8 µM (inactive) | 25.5 µM (inactive) | 23.4 µM (inactive) | 18.1 µM (inactive) | 18.9 µM (inactive) | 20 µM (inactive) | 24.2 µM (inactive) | 16.9 µM (inactive) | 26.1 µM (inactive) | 32.6 µM (inactive) | 14.8 µM (inactive) | 25.8 µM (inactive) | 22.7 µM (inactive) | 14.7 µM (inactive)
2 | CC1(C)C=CC(=O)C(O)C(C)(C)C1=O (stereo not drawn) | > 100 µM (inactive) | 51.2 µM | 59 µM (inactive) | 51.5 µM (inactive) | 54.5 µM (inactive) | > 100 µM (inactive) | > 100 µM (inactive) | > 100 µM (inactive) | > 100 µM (inactive) | > 100 µM (inactive) | 92.7 µM (inactive) | > 100 µM (inactive) | 21.3 µM (inactive) | 75.3 µM (inactive) | > 100 µM (inactive) | 65.8 µM (inactive) | 66.5 µM (inactive) | > 100 µM (inactive) | 88.3 µM (inactive) | > 100 µM (inactive)
3 | CC(=O)OCc1ccc(-c2nc(C#N)c(N)o2)o1 | > 10 µM (inactive) | > 10 µM | > 10 µM (inactive) | > 10 µM (inactive) | > 10 µM (inactive) | > 10 µM (inactive) |  | > 10 µM (inactive) | > 10 µM (inactive) | > 10 µM (inactive) | > 10 µM (inactive) |  | > 10 µM (inactive) | > 10 µM (inactive) | > 10 µM (inactive) | > 10 µM (inactive) | > 10 µM (inactive) | > 10 µM (inactive) | > 10 µM (inactive) | > 10 µM (inactive)
4 | CN(C)/N=N/c1ccc(NC=O)cc1 | > 100 µM (inactive) | > 100 µM | > 100 µM (inactive) | > 100 µM (inactive) | > 100 µM (inactive) | > 100 µM (inactive) | > 100 µM (inactive) | > 100 µM (inactive) | > 100 µM (inactive) | > 100 µM (inactive) | > 100 µM (inactive) | 90.4 µM (inactive) | 69 µM (inactive) | > 100 µM (inactive) | > 100 µM (inactive) | > 100 µM (inactive) | > 100 µM (inactive) | 82.8 µM (inactive) | > 100 µM (inactive) | > 100 µM (inactive)
5 | CCOC(=O)/C(SC#N)=C(/N)N1CCCC1 | > 100 µM (inactive) | > 100 µM | > 100 µM (inactive) | > 100 µM (inactive) | > 100 µM (inactive) | > 100 µM (inactive) | > 100 µM (inactive) | > 100 µM (inactive) | > 100 µM (inactive) | > 100 µM (inactive) | > 100 µM (inactive) | > 100 µM (inactive) | > 100 µM (inactive) | > 100 µM (inactive) | > 100 µM (inactive) | > 100 µM (inactive) | > 100 µM (inactive) | > 100 µM (inactive) | > 100 µM (inactive) | > 100 µM (inactive)
6 | COc1ccc2c(c1)Cc1c(NCCN(C)C)ccc(C(=O)NCCCN(C)CCCNC(=O)c3ccc(NCCN(C)C)c4c3Nc3ccc(OC)cc3C4)c1N2 | < 0.01 µM (active) | 0.728 µM | < 0.01 µM (active) | 0.0724 µM (active) | < 0.01 µM (active) | 0.0322 µM (active) | < 0.01 µM (active) | 0.15 µM (active) | < 0.01 µM (active) | < 0.01 µM (active) | 0.143 µM (active) | < 0.0248 µM (active) | < 0.01 µM (active) | 0.0213 µM (active) | < 0.01 µM (active) | < 0.01 µM (active) | 0.154 µM (active) | 0.362 µM (active) | < 0.01 µM (active) | 0.116 µM (active)
7 | OC[P+](CO)(CO)C12CC3CC(CC(C3)C1)C2 | > 100 µM (inactive) | > 89.5 µM | > 100 µM (inactive) | > 100 µM (inactive) | > 87.3 µM (inactive) | > 100 µM (inactive) | > 100 µM (inactive) | > 100 µM (inactive) | > 100 µM (inactive) | > 100 µM (inactive) | > 86.9 µM (inactive) | > 100 µM (inactive) | 21.9 µM (inactive) | > 30.1 µM (inactive) | > 100 µM (inactive) | > 100 µM (inactive) | > 63.2 µM (inactive) | > 78.3 µM (inactive) | 48.5 µM (inactive) | > 100 µM (inactive)
